Laboratory results published in PMC5374673, “Activity of the novel BCR kinase inhibitor IQS019 in preclinical models of B-cell non-Hodgkin lymphoma” (Journal of Hematology & Oncology, 2017).

Assays:
Type in all cases: biochemical
[1] = target: Btk (Homo sapiens, UniProt Q06187); test: radiometric kinase assay and 400-kinase panel (ProQinase); also Ba/F3 cells expressing the kinase domain
[2] = target: Lyn (Homo sapiens, UniProt P07948); test: as above
[3] = target: T1, Bmx (Homo sapiens, UniProt P51813); test: 400-kinase panel, residual activity at […]
T1 sequence (P51813 1-675): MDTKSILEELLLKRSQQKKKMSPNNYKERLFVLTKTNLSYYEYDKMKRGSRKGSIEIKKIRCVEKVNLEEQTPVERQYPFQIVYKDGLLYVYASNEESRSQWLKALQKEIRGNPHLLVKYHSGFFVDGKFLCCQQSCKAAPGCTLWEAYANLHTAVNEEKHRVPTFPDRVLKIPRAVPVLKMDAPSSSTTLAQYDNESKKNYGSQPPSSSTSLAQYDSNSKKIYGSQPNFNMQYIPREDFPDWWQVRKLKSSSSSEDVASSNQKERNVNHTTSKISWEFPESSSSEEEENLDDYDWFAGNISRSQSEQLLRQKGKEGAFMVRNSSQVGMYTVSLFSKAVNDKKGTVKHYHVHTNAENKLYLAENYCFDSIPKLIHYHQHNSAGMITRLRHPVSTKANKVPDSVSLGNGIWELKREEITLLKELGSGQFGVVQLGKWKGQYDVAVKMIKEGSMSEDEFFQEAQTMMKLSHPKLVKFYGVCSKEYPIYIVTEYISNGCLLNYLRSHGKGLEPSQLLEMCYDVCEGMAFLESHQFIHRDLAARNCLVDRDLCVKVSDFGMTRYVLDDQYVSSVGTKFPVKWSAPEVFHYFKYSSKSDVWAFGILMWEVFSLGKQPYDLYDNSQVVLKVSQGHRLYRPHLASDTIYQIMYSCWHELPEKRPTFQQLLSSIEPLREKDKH

[4] = target: Syk (Homo sapiens, UniProt P43405); test: radiometric kinase assay and 400-kinase panel (ProQinase); also Ba/F3 cells expressing the kinase domain

Sequence of Btk (Q06187 2-659): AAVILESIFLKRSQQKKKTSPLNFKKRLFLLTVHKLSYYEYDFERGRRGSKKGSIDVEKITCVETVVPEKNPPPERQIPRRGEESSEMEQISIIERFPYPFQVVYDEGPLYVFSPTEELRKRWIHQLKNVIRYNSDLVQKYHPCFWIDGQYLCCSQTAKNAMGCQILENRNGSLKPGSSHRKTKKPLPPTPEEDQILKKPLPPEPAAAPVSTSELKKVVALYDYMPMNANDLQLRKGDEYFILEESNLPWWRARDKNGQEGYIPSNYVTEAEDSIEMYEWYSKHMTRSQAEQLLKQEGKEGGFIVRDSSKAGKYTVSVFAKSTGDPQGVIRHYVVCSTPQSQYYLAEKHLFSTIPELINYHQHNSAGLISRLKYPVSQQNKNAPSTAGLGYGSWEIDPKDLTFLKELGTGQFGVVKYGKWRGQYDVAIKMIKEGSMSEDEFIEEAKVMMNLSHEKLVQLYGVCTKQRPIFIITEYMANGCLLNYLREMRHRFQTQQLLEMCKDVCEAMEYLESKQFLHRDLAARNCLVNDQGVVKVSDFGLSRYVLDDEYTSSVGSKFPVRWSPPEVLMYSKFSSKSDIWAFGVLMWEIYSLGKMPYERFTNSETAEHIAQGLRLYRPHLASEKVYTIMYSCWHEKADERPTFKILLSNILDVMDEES
Sequence of Lyn (P07948 2-512): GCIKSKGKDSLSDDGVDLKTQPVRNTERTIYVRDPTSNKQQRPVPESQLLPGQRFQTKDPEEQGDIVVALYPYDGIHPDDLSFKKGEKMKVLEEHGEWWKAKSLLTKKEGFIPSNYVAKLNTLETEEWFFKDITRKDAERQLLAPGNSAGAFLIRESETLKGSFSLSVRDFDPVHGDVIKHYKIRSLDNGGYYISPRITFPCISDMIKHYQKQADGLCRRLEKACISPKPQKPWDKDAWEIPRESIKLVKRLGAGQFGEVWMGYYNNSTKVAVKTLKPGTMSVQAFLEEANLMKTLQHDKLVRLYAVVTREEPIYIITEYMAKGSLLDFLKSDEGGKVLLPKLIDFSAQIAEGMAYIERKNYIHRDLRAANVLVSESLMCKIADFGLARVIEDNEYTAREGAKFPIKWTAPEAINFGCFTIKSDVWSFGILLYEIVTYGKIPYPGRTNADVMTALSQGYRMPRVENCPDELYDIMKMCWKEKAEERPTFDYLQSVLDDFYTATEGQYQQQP

IC50 [1]: 2100 nM
IC50 [2]: 150 nM
IC50 [4]: 1600 nM
SMILES: CN1CCN(c2ccc(Nc3nc(N)c4cc(-c5c(Cl)cccc5Cl)c(=O)n(C)c4n3)cc2)CC1 [compound 19, IQS019]
400-kinase panel, residual activity at 0.1 and 10 μM [3]: the member of the Tec family of non-receptor tyrosine kinases, Bmx
